Laboratory results published in US20060127384A1, “Coenzyme Q10 as antiapoptotic agent” (priority 2004, published 2006).

Columns and labels:
caspase 3 = assay: Quantification of caspase 3 in adipocytes by Western blotting and densitometry; assay type: cell-based, human
Experimental: (§1) Quantification of Apoptotic Factors (cytocrome c, caspase 3 and 9)
(§2) Adipocytes have been collected both manually using a “Luer-lock” 10 cc. syringe following Coleman's technique, and by a liposuctor with a negative pressure adjusted to maintain −680 mmHg. After the collection, half of the sample was treated with coenzyme Q10 dissolved in Lutrol (or another amphipathic molecule) at 10 μM concentration, as reported in previous works (1, 3). The other half of collected sample was treated with Lutrol (or another amphipathic molecule) alone. Both samples were then -centrifuged. The interphase and cell pellet were collected, following Coleman's technique (6) and maintained in liquid Nitrogen.
(§3) Preparation of protein cell lysates (6) is a modification of the -method described by Rioux (7).
(§4) Liposucted cell suspensions were centrifuged at 800 g for 10 minutes. 1 ml of lysis buffer (0.75 M NaCl, 10 mM HEPES, 1 mM EDTA, 1% Triton-X-100) containing a protease inhibitor mixture (final concentrations 1 μg/ml leupeptin, 10 μg/ml benzamidine, 1 μg/ml chymostatin, 1 μg/ml pepstatin A and 100 μg/ml PMSF) was added and the cell pellet was sonicated two times successively (20 sec, 100 W) to obtain whole cellular lysate. The lysate was further cleared by centrifugation at 10.000 g for 30 min in mini centrifuge. After removing the fat layer and the pellet of cellular debris, the protein content was quantified with Bradford reagent by spectrophotometry. Protein lysates (30 μg/lane) were separated by SDS-PAGE (10 and 15%) and analysed by Western blot analysis with specific antibodies.
(§5) Quantification of apoptotic factors was performed by densitometry.

caspase 9 = assay: Quantification of caspase 9 in adipocytes by Western blotting and densitometry; assay type: cell-based, human
Experimental: as §1, §2, §3, §4, §5

skin grafts = assay: Apoptotic cells in skin grafts (Hoechst staining / in situ TUNEL); assay type: cell-based, human
Experimental: FIG. 4. Appearance of skin grafts untreated or treated with coenzyme Q10 and stained with in situ TUNEL.
FIG. 5. Number of apoptotic cells in skin grafts untreated or treated with coenzyme Q10 and stained with in situ TUNEL. Values are expressed as percentage of total cells (living+dead cells).
Isolated adipocytes in suspension were fixed with 4% paraformaldehyde for 20 min at RT (room temperature), washed 3 times with PBS and permeabilized for 5 min with 0.25% Triton X-100 in PBS solution. Washes with PBS were repeated 3 times for 5 min each time and the cells were stained with Hoechst 33258 (Sigma) nuclear dye for 30 min at 37° C. followed by washing in PBS 3 times for 5 min.
(§6) The stained cells (10^4) were affixed to polylysine-treated glass slides by gentle cyto-centrifugation or by spreading the cellular film directly on the surface, of the glass slide and mounted. Nuclear staining was examined under Nikon fluorescence microscope (20× and 40× magnification) equipped with camera. The results are expressed as the percentage of apoptotic cells (number of apoptotic cells/100 counted cells) in 10 random fields, performed by 3 independent observers.

cytochrome C = assay: Dosage of cytoplasmic cytochrome C in adipocytes by Western blotting; assay type: cell-based, human; details: liposucted adipocytes, Western blot (FIG. 1)
Experimental: as §1, §2, §3
Liposucted cell suspensions were centrifuged at 800 g for 10 minutes. […] After removing the fat layer and the pellet of cellular debris, the protein content was quantified with Bradford reagent by spectrophotometry. Protein lysates (30 μg/lane) were separated by SDS-PAGE (10 and 15%) and analysed by Western blot analysis with specific antibodies.
as §5

[1] = system: mitochondrial Permeability Transition Pore (mPTP); details: in response to any apoptotic stimulus; cited from earlier work
cultured keratocytes = details: excimer laser irradiation; cited from earlier work
adipocytes = assay: Apoptotic events in adipocytes from explanted tissues; assay type: cell-based, human; details: adipocytes maintained in the presence of coenzyme Q10
Experimental: Isolation of Adipocytes from Adipose Tissue
Modification of protocol described by Flower et al., Cytokine 21 (2003) 32-37.
For isolation, adipocyte tissue was quickly thawed, dissected with scissors into fine fragments in-digest solution consisting of Hank's buffer, supplemented with 2 mg/ml of collagenase (Type II, Sigma) and 1.5% BSA, and incubated at 37° C. for 1 hour in shaker-heater bath. The ratio of digest solution to adipose tissue was 4:1. The tissue digest was filtered through 200 μm Nylon mesh fabric in order to remove non digested tissue fragments. The adipocyte-containing layer and free oil were separated from the resulting stromovascular cell suspension by repeated centrifugation at 250×g for 5 minutes at 4° C. All the cells retrieved were morphologically typical mature adipocytes.
Detection of Apoptotic Adipocytes by Hoechst Staining […]
as §6

[2] = adipocytes collected manually (Luer-lock syringe) and by liposuctor, 10 μM in Lutrol, vs untreated samples
[3] = adipocytes collected with Coleman's technique, added prior to centrifugation and purification
[4] = cells from explanted tissues after ex vivo treatments, in the presence of coenzyme Q10

With `COC1=C(OC)C(=O)C(C/C=C(\C)CC/C=C(\C)CC/C=C(\C)CC/C=C(\C)CC/C=C(\C)CC/C=C(\C)CC/C=C(\C)CC/C=C(\C)CC/C=C(\C)CCC=C(C)C)=C(C)C1=O` [coenzyme Q10, 2.3-dimethoxy-5-methyl-6-multiprenyl-1.4-benzoquinone] the “reduction of caspase 3 activity compared to controls (FIG. 2)” value (caspase 3; [2]) was ~50%, the “caspase 3 activity evaluated by Western blotting” value (caspase 3; [3]) was “dramatically reduced” and the “reduction of caspase 3 level” value (caspase 3; [4]) was “more than 50%”. For the same molecule, the “reduction of caspase 9 activity compared to controls (FIG. 2)” value (caspase 9; [2]) was ~50%, the “caspase 9 activity evaluated by Western blotting” value (caspase 9; [3]) was “dramatically reduced” and the “reduction of caspase 9 level” value (caspase 9; [4]) was “more than 50%”. For the same molecule, the “number of apoptotic events” value (skin grafts; cutaneous cells maintained in the presence of coenzyme Q10) was “significantly reduced”, the “percentage of apoptotic cells” value (skin grafts; skin graft, glass slides of treated vs non treated cells (FIG. 4)) was “dramatically lower” and the cell morphology (skin grafts; skin graft, treated cells, non treated cells showed nuclear condensation and fragmentation) was “normal morphology of a living cell”. The “number of apoptotic cells” value (skin grafts; skin grafts immersed in coenzyme Q10-saline solution (FIG. 5)) was “drastically decreased”, the “translocation of cytochrome C to cytosol” value (cytochrome C) was “significantly inhibited” and the “disruption of mitochondrial transmembrane electrochemical gradient and opening of mPTP” value [1] was “directly inhibits”. The apoptosis (cultured keratocytes) was “able to inhibit apoptosis” and the “number of apoptotic events” value (adipocytes) was “significantly reduced”.
